Assay results: patent US20250162979A1, “P-DIPHENYL COMPOUND DERIVATIVE MIXTURE AND METHOD OF PRODUCING THE SAME” (HODOGAYA CHEMICAL CO., LTD., priority 2021, published 2025)

Test: Solubility in organic solvent, checked visually at room temperature
Type: physicochemical
Conditions: room temperature (25±5° C.), stirred 3 to 5 minutes, visual check, % (w/w)

Cc1ccc(N(c2ccccc2)c2ccc(-c3ccc(N(c4ccccc4)c4ccc(C)cc4)cc3)cc2)cc1 [A-1, 4,4′-bis(4-methyldiphenylamino)-p-diphenyl]
Solubility in THF (10 g tetrahydrofuran): 49.9%
Solubility in toluene (10 g toluene): 24.2%
